Experimental data reported in US8247211B2, “Glycopeptide antibiotics” (American Cyanamid Company, priority 2001, dated 2012).
Values after ≈ are worked out from the molar mass of the structure shown.

Tests used:
Experiment in all cases: In vitro antibacterial evaluation: minimum inhibitory concentration (MIC), broth dilution method
Type in all cases: cell-based
Streptococcus sp. = system: Streptococcus sp.
Outline: (§1)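 Test strains, among them recent clinical isolates carrying methicillin, penicillin and/or vancomycin resistance, were inoculated at 5×10^5 CFU/mL. A broth dilution series spanning 64-0.06 μg/mL in Muller-Hinton II […] (NCCLS M7-A2) defined the MIC as the lowest growth-inhibiting concentration.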

Escherichia coli = system: Escherichia coli
Outline: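 Susceptibility determined by NCCLS-recommended broth dilution (M7-A2), Muller-Hinton II […]. Concentration span 64-0.06 μg/mL, inoculum 5×10^5 CFU/mL. Isolates include strains resistant to methicillin, penicillin and/or vancomycin.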

Enterococcus sp. = system: Enterococcus sp.
Outline: as §1

Staphylococcus sp. = system: Staphylococcus sp.
Outline: as §1

[1] = broth dilution, 18 hours at 35° C.

## CC(c1ccccc1)C1NC(=O)CNC(=O)C(CO)NC(=O)C(C(O)C2CN(c3nc4ccccc4s3)C(=N)N2C2OC(CO)C(O)C(O)C2O)NC(=O)C(C(O)C2CNC(=Nc3nc4ccccc4s3)N2)NC(=O)C(Cc2ccc(OC3OC(CO)C(OC4OC(CO)C(O)C(O)C4O)C(O)C3O)cc2)NC1=O (stereo not drawn) [Example 94, Cyclo[glycyl-β-methylphenylalanyl-O-(4-O-hexopyranosylhexopyranosyl)tyrosyl-3-[2-(1,3-benzothiazol-2-ylimino)imidazolidin-4-yl]seryl-3-[1-(1,3-benzo-thiazol-2-yl)-2-imino-3-hexonyranosylimidazolidin-4-yl]serylseryl]]
Streptococcus sp.; Streptococcus agalactiae (GC 4564), broth dilution, 18 hours at 35° C.
  MIC Streptococcus agalactiae (GC 4564): >64 µg/mL
Streptococcus sp.; Streptococcus pneumoniae (ATCC 6301), broth dilution, 18 hours at 35° C.
  MIC Streptococcus pneumoniae (ATCC 6301): >64 µg/mL
Streptococcus sp.; Streptococcus pneumoniae (GC 1894), broth dilution, 18 hours at 35° C.
  MIC Streptococcus pneumoniae (GC 1894): >64 µg/mL
Streptococcus sp.; Streptococcus pneumoniae (GC 4565), broth dilution, 18 hours at 35° C.
  MIC Streptococcus pneumoniae (GC 4565): >64 µg/mL
Streptococcus sp.; Streptococcus pyogenes (GC 4563), broth dilution, 18 hours at 35° C.
  MIC Streptococcus pyogenes (GC 4563): >64 µg/mL
Streptococcus sp.; strain ATCC 6301
  MIC Streptococcus pneumoniae (ATCC 6301): >64 µg/mL
Streptococcus sp.; strain GC 1894
  MIC Streptococcus pneumoniae (GC 1894): >64 µg/mL
Streptococcus sp.; strain GC 4563
  MIC Streptococcus pyogenes (GC 4563): >64 µg/mL
Streptococcus sp.; strain GC 4564
  MIC Streptococcus agalactiae (GC 4564): >64 µg/mL
Streptococcus sp.; strain GC 4565
  MIC Streptococcus pneumoniae (GC 4565): >64 µg/mL
Escherichia coli; strain ATCC 25922
  MIC Escherichia coli (ATCC 25922): >64 µg/mL
Escherichia coli; strain GC 4559
  MIC Escherichia coli (GC 4559): >64 µg/mL
Escherichia coli; strain GC 4560
  MIC Escherichia coli (GC 4560): 64 µg/mL (≈ 41 µM)
Enterococcus sp.; Enterococcus faecalis (GC 2242), broth dilution, 18 hours at 35° C.
  MIC Enterococcus faecalis (GC 2242): >64 µg/mL
Enterococcus sp.; Enterococcus faecalis (GC 2691), broth dilution, 18 hours at 35° C.
  MIC Enterococcus faecalis (GC 2691): >64 µg/mL
Enterococcus sp.; Enterococcus faecalis (GC 3059), broth dilution, 18 hours at 35° C.
  MIC Enterococcus faecalis (GC 3059): >64 µg/mL
Enterococcus sp.; strain ATCC 29212
  MIC Enterococcus faecalis (ATCC 29212): >64 µg/mL
Enterococcus sp.; strain GC 2242
  MIC Enterococcus faecalis (GC 2242): >64 µg/mL
Enterococcus sp.; strain GC 2243
  MIC Enterococcus faecium (GC 2243): >64 µg/mL
Enterococcus sp.; strain GC 2691
  MIC Enterococcus faecalis (GC 2691): >64 µg/mL
Enterococcus sp.; strain GC 3059
  MIC Enterococcus faecalis (GC 3059): >64 µg/mL
Enterococcus sp.; strain GC 4552
  MIC Enterococcus faecalis (GC 4552): >64 µg/mL
Enterococcus sp.; strain GC 4553
  MIC Enterococcus faecalis (GC 4553): >64 µg/mL
Enterococcus sp.; strain GC 4554
  MIC Enterococcus faecalis (GC 4554): >64 µg/mL
Enterococcus sp.; strain GC 4556
  MIC Enterococcus faecium (GC 4556): >64 µg/mL
Enterococcus sp.; strain GC 4557
  MIC Enterococcus faecium (GC 4557): >64 µg/mL
Enterococcus sp.; strain GC 4558
  MIC Enterococcus avium (GC 4558): >64 µg/mL
Enterococcus sp.; strain GC 6189
  MIC Enterococcus faecalis (GC 6189): >64 µg/mL
Staphylococcus sp.; [1]
  MIC Staphylococcus aureus (ATCC 29213): >64 µg/mL
  MIC Staphylococcus aureus (GC 1131): >64 µg/mL
  MIC Staphylococcus aureus (GC 3051): >64 µg/mL
  MIC Staphylococcus aureus (GC 3053): >64 µg/mL
  MIC Staphylococcus aureus (GC 4541): >64 µg/mL
  MIC Staphylococcus aureus (GC 4542): >64 µg/mL
  MIC Staphylococcus aureus (GC 4544): >64 µg/mL
  MIC Staphylococcus aureus (GC 4545): >64 µg/mL
Staphylococcus sp.; strain GC 4543, 18 hours at 35° C.
  MIC Staphylococcus aureus-SMITH (GC 4543): >64 µg/mL
Staphylococcus sp.; strain GC 4546
  MIC Staphylococcus haemolyticus (GC 4546): >64 µg/mL
Staphylococcus sp.; strain GC 4547
  MIC Coagulase Negative Staphylococcus (GC 4547): >64 µg/mL
Staphylococcus sp.; strain GC 4548
  MIC Coagulase Negative Staphylococcus (GC 4548): >64 µg/mL
Staphylococcus sp.; strain GC 4549
  MIC Coagulase Negative Staphylococcus (GC 4549): >64 µg/mL
Staphylococcus sp.; strain GC 4551
  MIC Coagulase Negative Staphylococcus (GC 4551): >64 µg/mL
Staphylococcus sp.; strain SMITH GC 4543, broth dilution, 18 hours at 35° C.
  MIC Staphylococcus aureus-SMITH (GC 4543): >64 µg/mL
